Data: patent US11338007B2, “Combination formulation of three antiviral compounds” (priority 2016, dated 2022)

What was measured:
HCV RNA = assay: Emax PK/PD modeling of sofosbuvir dose (HCV RNA change from baseline); type: in vivo, human; conditions: mean major metabolite AUCtau for 400 mg dose
Protocol: The sofosbuvir dose selected for the tablet formulation is 400 mg once daily. Support for the 400 mg sofosbuvir dose can be derived from Emax PK/PD modeling with early virological and human exposure data which also supports the selection of a 400 mg sofosbuvir dose over others tested.
The mean sofosbuvir major metabolite AUCtau for the 400 mg sofosbuvir dose is associated with approximately 77% of the maximal HCV RNA change from baseline achievable as determined by this model, a value which is on the cusp of the plateau of the exposure-response sigmoidal curve. In a sigmoidal Emax model, there is a relatively linear exposure-response relationship in the 20 to 80% maximal effect range. Therefore, given that sofosbuvir exposure with 200 mg tablets appears dose-proportional with single doses up to 1200 mg, doses below 400 mg are expected to yield considerable reductions in the magnitude of HCV RNA change from baseline.

genotype 2 or 3 HCV = assay: SVR in HCV infected patients given sofosbuvir plus other HCV therapeutics; type: in vivo, human; conditions: 400 mg once daily plus other HCV therapeutics; genotype 2 or 3 HCV infected patients
Protocol: Safety and tolerability appeared similar across both dose levels. In addition, when sofosbuvir 400 mg once daily plus other HCV therapeutics were given to genotype 2 or 3 HCV infected patients, 100% SVR24 was observed.

[1] = Chemical and physical stability of Formulation G film-coated tablets Lots A and B (Tables 11A, 11B); type: physicochemical
Protocol: In some embodiments, the film-coated tablets were packaged in 75 and 100 mL white HDPE bottles (Lots A and B, respectively, as described in Tables 11A, 11B) with 1 g silica gel desiccant canisters and a polyester fiber coil. The 75 and 100 mL HDPE bottles contained fourteen and twenty eight tablets, respectively. Each HDPE bottle was capped using a continuous thread, child-resistant polypropylene screw cap with an […], aluminum-faced line. The packaged tablets (14 and 28 counts) were evaluated for stability at 40° C./75% RH and 25° C./60% RH. Additionally, the 14-count bottles (without cap) were evaluated for stability under open conditions at 40° C./75% RH.

[2] = Tablet dissolution, 50 mM sodium acetate buffer pH 5.0 with 2.0% w/v Polysorbate 80, USP Type II, 75 rpm; type: physicochemical
Protocol: FIGS. 10-12 depict additional dissolution profiles for the sofosbuvir/velpatasvir SSD/voxilaprevir SSD tablets having the formulation described in Table 13 and which were used in phase 1, 2, and 3 clinical studies, where the dissolution testing was conducted at pH 5.0 acetate buffer containing 2.0% w/v polysorbate 80. Four batches of the sofosbuvir/velpatasvir SSD/voxilaprevir SSD tablets were tested, with Batch A manufactured at 100 kg and Batches B, C and D manufactured at 145 kg. All other aspects of the formulation and manufacturing process were otherwise equivalent. […] Moreover, for Batch A, the amount dissolved at 30 min remained between 98 and 100% for sofosbuvir, between 90 and 92% for velpatasvir SSD, and between 89 and 93% for voxilaprevir SSD. […] For Batch D, the amount dissolved at 30 min remained at 100% for sofosbuvir, between 90 and 91% for velpatasvir SSD, and between 89 and 91% for voxilaprevir SSD. Release of velpatasvir SSD and voxilaprevir SSD from the sofosbuvir/velpatasvir SSD/voxilaprevir SSD tablets associated with all four Batches was complete after 60 minutes.

[3] = Tablet dissolution as a function of medium pH and composition (FIGS. 13-15); type: physicochemical; conditions: Formulation G tablets; independent of medium pH and composition
[4] = BCS classification and pH dependence of solubility; type: physicochemical

CC(C)OC(=O)C(C)N[P@](=O)(OC[C@H]1O[C@@H](n2ccc(=O)[nH]c2=O)[C@](C)(F)[C@@H]1O)Oc1ccccc1 (stereo in doubt) [sofosbuvir, (S)-isopropyl 2-(((S)-(((2R,3R,4R,5R)-5-(2,4-dioxo-3,4-dihydropyrimidin-1(2H)-yl)-4-fluoro-3-hydroxy-4-methyltetrahydrofuran-2-yl)methoxy)(phenoxy)phosphoryl)amino)propanoate]
maximal HCV RNA change from baseline achievable (Emax model) (HCV RNA): approximately 77% | SVR24 (genotype 2 or 3 HCV): 100% | total impurities/degradation products ([1]; Formulation G tablets, open conditions at 40° C./75% RH for 6 months): 0.0% | Total Imp./Deg. ([1]; Lot A (14 ct), 25° C./60% RH Closed, 1 month): 0.0% | Total Imp./Deg. ([1]; Lot A (14 ct), 25° C./60% RH Closed, 3 months): 0.0% | Total Imp./Deg. ([1]; Lot A (14 ct), 25° C./60% RH Closed, 6 months): 0.0% | Total Imp./Deg. ([1]; Lot A (14 ct), 40° C./75% RH Closed, 1 month): 0.0% | Total Imp./Deg. ([1]; Lot A (14 ct), 40° C./75% RH Closed, 3 months): 0.0% | Total Imp./Deg. ([1]; Lot A (14 ct), 40° C./75% RH Closed, 6 months): 0.0% | Total Imp./Deg. ([1]; Lot A (14 ct), 40° C./75% RH Open, 1 month): 0.0% | Total Imp./Deg. ([1]; Lot A (14 ct), 40° C./75% RH Open, 3 months): 0.0% | Total Imp./Deg. ([1]; Lot A (14 ct), 40° C./75% RH Open, 6 months): 0.0% | Total Imp./Deg. ([1]; Lot A (14 ct), Initial): 0.0% | Total Imp./Deg. ([1]; Lot B (28 ct), 25° C./60% RH Closed, 1 month): 0.0% | Total Imp./Deg. ([1]; Lot B (28 ct), 25° C./60% RH Closed, 3 months): 0.0% | Total Imp./Deg. ([1]; Lot B (28 ct), 25° C./60% RH Closed, 6 months): 0.0% | Total Imp./Deg. ([1]; Lot B (28 ct), 40° C./75% RH Closed, 1 month): 0.0% | Total Imp./Deg. ([1]; Lot B (28 ct), 40° C./75% RH Closed, 3 months): 0.0% | Total Imp./Deg. ([1]; Lot B (28 ct), 40° C./75% RH Closed, 6 months): 0.0% | Total Imp./Deg. ([1]; Lot B (28 ct), Initial): 0.0% | total impurities/degradation products ([1]; packaged Formulation G tablets, 40° C./75% RH and 25° C./60% RH for 6 months): 0.0% | Dissolved at 30 min ([2]; Batch A, 25° C./60% RH, 3 months): 98% | Dissolved at 30 min ([2]; Batch A, 25° C./60% RH, 6 months): 98% | Dissolved at 30 min ([2]; Batch A, 30° C./75% RH, 3 months): 98% | Dissolved at 30 min ([2]; Batch A, 30° C./75% RH, 6 months): 100% | Dissolved at 30 min ([2]; Batch A, 40° C./75% RH, 1 month): 98% | Dissolved at 30 min ([2]; Batch A, 40° C./75% RH, 3 months): 99% | Dissolved at 30 min ([2]; Batch A, 40° C./75% RH, 6 months): 100% | Dissolved at 30 min ([2]; Batch A, Initial): 98% | Dissolved at 30 min ([2]; Batch B, 25° C./60% RH, 3 months): 99% | Dissolved at 30 min ([2]; Batch B, 25° C./60% RH, 6 months): 99% | Dissolved at 30 min ([2]; Batch B, 30° C./75% RH, 3 months): 99% | Dissolved at 30 min ([2]; Batch B, 30° C./75% RH, 6 months): 99% | Dissolved at 30 min ([2]; Batch B, 40° C./75% RH, 1 month): 100% | Dissolved at 30 min ([2]; Batch B, 40° C./75% RH, 3 months): 100% | Dissolved at 30 min ([2]; Batch B, 40° C./75% RH, 6 months): 98% | Dissolved at 30 min ([2]; Batch B, Initial): 99% | amount dissolved at 30 min ([2]; Batch D): 100% | Dissolved at 30 min ([2]; Batch D, 40° C./75% RH, 1 month): 100% | Dissolved at 30 min ([2]; Batch D, Initial): 100% | dissolution at 30 minutes ([2]; potency study Lot B, after 4 weeks open at 40° C./75% RH): 100% | release at 30 minutes ([2]; tablet Lots A and B with different sofosbuvir particle size): 101% | Dissolved at 30 min (%) ([2]; tablets Batch C, 1 g desiccant, 25° C./60% RH, 3 months): 101% | Dissolved at 30 min (%) ([2]; tablets Batch C, 1 g desiccant, 25° C./60% RH, 6 months): 99% | Dissolved at 30 min (%) ([2]; tablets Batch C, 1 g desiccant, 30° C./75% RH, 3 months): 99% | Dissolved at 30 min (%) ([2]; tablets Batch C, 1 g desiccant, 30° C./75% RH, 6 months): 99% | Dissolved at 30 min (%) ([2]; tablets Batch C, 1 g desiccant, 40° C./75% RH, 1 month): 100% | Dissolved at 30 min (%) ([2]; tablets Batch C, 1 g desiccant, 40° C./75% RH, 3 months): 100% | Dissolved at 30 min (%) ([2]; tablets Batch C, 1 g desiccant, 40° C./75% RH, 6 months): 99% | Dissolved at 30 min (%) ([2]; tablets Batch C, 1 g desiccant, Initial, time 0): 99% | Dissolved at 30 min (%) ([2]; tablets from VEL SSD 7.0% water, VOX SSD 3.2% water, Initial, time 0): 100% | dissolution complete within [3]: ≤ 20 min | BCS Class [4]: BCS Class 3 | aqueous solubility, pH dependence [4]: high and pH-independent
